For data set [1], the system named is TGF-β induced epithelial mesenchymal transition (EMT) protein production. Kind of data set: TGF-β induced EMT protein production in HepG2 cells. It counts as cell-based, human. Conditions: increasing doses for 1 hour, then 200 pM TGF-β for 48 hours. The method, then: (§1) The effects of 15-HEPE on TGF-β-induced signaling and cellular responses were determined. To test the effect of 15-HEPE on TGF-β-induced signaling, the activities of 15-HEPE to regulate TGF-β-stimulated Smad2 phosphorylation and nuclear translocation, both of which are key signaling events leading to TGF-β-induced cellular responses, were tested. One important biological activity of TGF-β is transcriptional activation of genes responsible for epithelial-mesenchymal transition (EMT), which is a crucial event in wound healing, tissue fibrosis, and cancer progression. The effect of 15-HEPE on TGFβ-induced epithelial mesenchymal transition related proteins (such as fibronectin, PAI-1, and N-cadherin etc.) expression in HepG2 and LXR cells were assessed. HepG2 cells (human hepatoma cell line) were treated in increasing doses of 15-HEPE stage II in DMEM containing 0.1% of FBS for 1 hour and continually stimulated with or without 200 picomolar (pM) of TGF-β for 48 hours.
(§2) HepG2 cells (human hepatoma cell line) were treated in increasing doses of 15-HEPE stage II in DMEM containing 0.1% of FBS for 1 hour and continually stimulated with or without 200 picomolar (pM) of TGF-β for 48 hours. The two panels shown in FIG. 18A are two separate experiments run under the same experimental conditions.

Data set [2] has as its system TβR-II (type II TGF-β receptor). Put plainly: Sucrose density gradient analysis in Mv1Lu cells, TβR-II. Conditions: for translocation and degradation of type II TGF-β receptors: summary of Example 3, free acid or ethyl ester form. It counts as cell-based, mink. As for the experimental part: (§3) Sucrose gradient ultracentrifugation and confocal microscopy were used to identify 15-HEPE induced microdomain translocation of TGF-β receptors […]. Sucrose density gradient analysis of TGF-β receptors was conducted in the plasma membranes of Mv1Lu cells (mink lung epithelial cell) treated with 100 μM of 15-HEPE and an equal volume of DMSO (dimethyl sulfoxide) at 37° C. for 0, 1, 4, and 24 hours, and the cell lysates from these treated cells were subjected to sucrose density gradient ultracentrifugation. The sucrose gradient fractions were then analyzed by Western blot analysis using anti-Tβ(type I TGF-β receptor), anti-TβR-II (type II TGF-β receptor), anti-TβR-III (type III TGF-β receptor, betaglycan), anti-EGFR (epidermal growth factor receptor), and anti-caveolin-1 antibodies. The lipid raft/caveolae, and non-lipid raft microdomain localization of TβR-I, TβR-II, TβR-III, EGFR and caveolin-1 in the plasma membrane of untreated cells or cells treated with 15-HEPE were assessed to determine the effects of 15-HEPE on the membrane microdomain localization of the TGF-β receptors.
A 15-HEPE sucrose density gradient analysis of TGF-β receptors was conducted in the plasma membranes of mink lung epithelial cell (Mv1 Lu) cells treated with 100 μM of 15-HEPE and an equal volume of dimethyl sulfoxide (DMSO) at 37° C. for 0, 1, 4, and 24 hours, and the cell lysates from these treated cells were subjected to sucrose density gradient ultracentrifugation. The sucrose gradient fractions were then analyzed by Western blot analysis using anti-TβR-I (type I TGF-β receptor—FIG. 18C), anti-TβR-II (type II TGF-β receptor-FIG. 18D), anti-TβR-III (type III TGF-β receptor, betaglycan-FIG. 18E), anti-EGFR (epidermal growth factor receptor-FIG. 18F), and anti-caveolin-1 antibodies (FIG. 18G). Fractions 4 to 5 contained lipid rafts/caveolae whereas fractions 7-10 were non-lipid raft fractions. […] Stars(*) indicate 15-HEPE increased abundance of TβR-I (24 hours) in the fraction in comparison with that of the control and shorter treatment durations (FIG. 18C). […] The triangles (▾) indicate translocation and decreased abundance of TβR-II in the fraction in comparison with control cells (FIG. 18D).

The test system of data set [3] is TGF-β-stimulated intracellular signaling (SMAD2/3 phosphorylation). Kind of data set: TGF-β-stimulated SMAD2/3 phosphorylation in LX2 liver stellate cells. It counts as cell-based, human. To be noted: 0 μM to 100 μM for 24 hours, then 30 min TGF-β.
The test system of data set [4] is Sprague Dawley rats. Put plainly: 26 week oral gavage toxicity study in rats: tolerability, clinical signs. To be noted: 6 g/kg/day oral gavage, replaced with 3 g/kg/day. It counts as in vivo. The method, then:
(§4) The test and control items were administered to the appropriate animals by once daily oral gavage 7 days a week for a minimum of 26 weeks. The volume for each animal was based on the most recent body weight measurements. The doses were given using a syringe with attached gavage cannula. The first day of dosing was designated as Day 1. The dosing formulations were removed from the refrigerator and stirred for at least 30 minutes before dosing. The dosing formulations were also stirred continuously during dosing.
Due to the onset of clinical signs, including hunched posture, erect fur and abnormal gait and body weight loss, animals 3206M, 3515F and 3703F were given a dosing holiday from Day 45 and remaining Group 3 animals were given a dosing holiday from Day 48. Animals will start dosing at the lower dose level (3000 mg/kg/day) from Day 64. The following tables illustrate the treatments (Table 23) and animal groupings (Table 24) that were used in the study.
Mortality/moribundity checks were made daily. […] Animals were not removed from the cage during observation, unless necessary for identification or confirmation of possible findings.
Post-dose observations were made regularly throughout the day. […] The onset, intensity, and duration of these signs were recorded; particular attention was paid to the animals during and for the first hour after dosing. […]

Data set [5] concerns Sprague Dawley rats. Put plainly: 26 week oral gavage toxicity study in rats: coagulation. It counts as in vivo. Conditions: 26 weeks; for Fibrinogen (FIB), Mean / Prothrombin Time (PT), Mean / Activated Partial Thromboplastic Time (APTT), Mean: male rats; for Fibrinogen (FIB), Mean: vehicle 2.61; for Prothrombin Time (PT), Mean: vehicle 10.25; for Activated Partial Thromboplastic Time (APTT), Mean: vehicle 12.92; for APTT compared to control / FIB concentration compared to control / PT compared to control: rats. As for the experimental part:
as §4
(§5) Sample Collection: Blood was collected via the tail vein unless immediately prior to necropsy, when blood was collected from the orbital sinus under non-recoverable isoflurane anesthesia. Blood was collected in ascending animal order unless samples were collected prior to necropsy where the order of euthanasia was followed. Additional blood samples were obtained (e.g. due to clotting of non-serum samples) if permissible sampling frequency and blood volume were not exceeded. After collection, samples were transferred to the appropriate laboratory for processing. Samples were collected according to the following table.
Coagulation: A 0.5 mL blood sample was collected using the anticoagulant 3.8% (w/v) trisodium citrate for processing to plasma. To assess coagulation the following coagulation parameters were measured.
(§6) Animals: The study used male and female Sprague Dawley rats purchased from Charles River UK Limited (Margate, Kent, UK). The target age at the initial dosing was 7-8 weeks. The target weight at the initial dosing was 175-300 g (males) and 120-250 g (females). Each animal was identified using a subcutaneously implanted electronic cylindrical, “glass-sealed” TROVAN microchip.

For data set [6] the following is noted: 0.5% HPMC dosing formulations; same preparation and storage conditions (4° C.); concentrations bracketing those used; cited from earlier work.
The test system of a further data set is rats. To be noted: oral once daily, 26 weeks, highest dose tested 1 mg/kg/day; cited from earlier work.
Data set [7] concerns Sprague Dawley rats. Put plainly: 26 week oral gavage toxicity study in rats: haematology. It counts as in vivo. Conditions: 26 weeks; for Red blood cell count (RBC), Mean / Red Cell Distribution Width (RDW), Mean / Reticulocyte count (RETIC), Mean: male rats; for Red blood cell count (RBC), Mean: vehicle 8.38; for Red Cell Distribution Width (RDW), Mean: vehicle 14.98; for Reticulocyte count (RETIC), Mean: vehicle 219.51. The method, then:
as §4, §5
Hematology: A 0.5 mL blood sample was collected using the anticoagulant K2EDTA. Blood smears were labelled, stained, and stored. The blood smears were analyzed according to the following parameters.
as §6

A further data set addresses T1, type II TGF-β receptor (Homo sapiens, UniProt P37173).
T1 construct: endogenous in cells; host or cells: HepG2
Put plainly: Type II TGF-β receptor degradation in HepG2 cells. To be noted: increasing doses for 1 hour, then 200 pM TGF-β for 48 hours. It counts as cell-based. The method, then: as §1, §2

The subject of data set [8] is EGFR (epidermal growth factor receptor). Put plainly: Sucrose density gradient analysis in Mv1Lu cells, EGFR. It counts as cell-based, mink. To be noted: 100 μM, 0-24 hours. The method, then:
as §3, with “receptors. […]” for “receptors.”

The subject of another data set is caveolin-1. Put plainly: Sucrose density gradient analysis in Mv1Lu cells, caveolin-1. It counts as cell-based, mink. To be noted: 100 μM, 0-24 hours. The method, then:
as §3, with “receptors. […]” for “receptors.”

Data set [9] relates to TβR-I (type I TGF-β receptor). Kind of data set: Sucrose density gradient analysis in Mv1Lu cells, TβR-I. To be noted: 100 μM. It counts as cell-based, mink. As for the experimental part:
as §3, with “receptors. […]” for “receptors.”

In data set [10] the test system is TβR-III (type III TGF-β receptor, betaglycan). Put plainly: Sucrose density gradient analysis in Mv1Lu cells, TβR-III. It counts as cell-based, mink. To be noted: 100 μM, 0-24 hours. As for the experimental part:
as §3, with “receptors. […]” for “receptors.”

Where [11] appears, read: 6000/3000 mg/kg/day oral gavage.

Each structure is given as a SMILES string. Marks after values point to notes of the source that are not given here.

T1 sequence (P37173 23-567): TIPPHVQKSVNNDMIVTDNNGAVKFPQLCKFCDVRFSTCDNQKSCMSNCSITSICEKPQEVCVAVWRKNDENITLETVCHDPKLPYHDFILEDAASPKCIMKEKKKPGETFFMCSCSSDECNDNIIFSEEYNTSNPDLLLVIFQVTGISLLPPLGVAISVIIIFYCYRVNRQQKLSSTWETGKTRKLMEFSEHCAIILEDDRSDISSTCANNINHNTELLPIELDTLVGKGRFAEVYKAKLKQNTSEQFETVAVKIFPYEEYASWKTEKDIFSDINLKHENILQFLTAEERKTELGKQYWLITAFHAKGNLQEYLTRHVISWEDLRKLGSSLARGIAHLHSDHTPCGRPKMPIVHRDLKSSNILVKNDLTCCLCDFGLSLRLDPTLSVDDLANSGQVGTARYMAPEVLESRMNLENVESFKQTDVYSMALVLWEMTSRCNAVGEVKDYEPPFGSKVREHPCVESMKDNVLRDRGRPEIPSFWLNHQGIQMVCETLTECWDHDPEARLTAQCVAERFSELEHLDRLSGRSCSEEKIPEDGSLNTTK

Turning to `CC/C=C\C[C@H](O)/C=C/C=C\C/C=C\C/C=C\CCCC(=O)OCC` [15-HEPE EE, 15-HEPE ethyl ester], the “TGF-β induced EMT (pro-fibrotic) protein production” value in data set [1] is on record as “blocked”. Also, in [2], the “translocation and degradation of type II TGF-β receptors” value is “induced translocation and degradation”. Also, the “TGF-β-stimulated intracellular signaling (SMAD2/3 phosphorylation)” value in data set [3] is “inhibited”.
In the case of `CC/C=C\C[C@H](O)/C=C/C=C\C/C=C\C/C=C\CCCC(=O)OCC` [15(S)-HEPE EE], the “tolerability of the highest dose” value with Sprague Dawley rats [4] is “not well tolerated”. In the data set with Sprague Dawley rats [5] (2000 mg/kg/day oral gavage), the “Fibrinogen (FIB), Mean” value is on record as 2.35** g/L; the “Prothrombin Time (PT), Mean” value was 10.69** sec; the “Activated Partial Thromboplastic Time (APTT), Mean” value is 15.03* sec. Also, in the data set on Sprague Dawley rats [5] (setting [11]), the “Fibrinogen (FIB), Mean” value is recorded as 2.26** g/L; the “Prothrombin Time (PT), Mean” value is listed as 10.81** sec; the “Activated Partial Thromboplastic Time (APTT), Mean” value is listed as 15.73** sec. In addition, in the data set on Sprague Dawley rats [5] (2 g/kg/day dose), the “APTT compared to control” value was “significant increase”, the “FIB concentration compared to control” value was “significant decrease” and the “PT compared to control” value was “significant increase”. In addition, in the data set with Sprague Dawley rats [5] (3 g/kg/day dose), the “APTT compared to control” value is “significant increase”, the “FIB concentration compared to control” value is on record as “significant decrease” and the “PT compared to control” value is “significant increase”. For the same compound, the “stability of the test item in the vehicle” value in data set [6] is on record as “stable”. Besides, the “adverse effects at the highest dose tested” value with rats is on record as “no adverse effects”. Moreover, in the data set on Sprague Dawley rats [7] (2000 mg/kg/day oral gavage), the “Red blood cell count (RBC), Mean” value is on record as 8.67 10^∧12/L; the “Red Cell Distribution Width (RDW), Mean” value is given as 13.91** %; the “Reticulocyte count (RETIC), Mean” value is 154.60* 10^∧9/L. Besides, in the data set on Sprague Dawley rats [7] (setting [11]), the “Red blood cell count (RBC), Mean” value is given as 8.81** 10^∧12/L; the “Red Cell Distribution Width (RDW), Mean” value is given as 13.60** %; the “Reticulocyte count (RETIC), Mean” value is recorded as 141.46** 10^∧9/L. Moreover, in the data set with Sprague Dawley rats [7] (rats, 2 g/kg/day dose), the “RDW compared to control” value is listed as “significant decrease” and the “RETIC compared to control” value is “significant decrease”. Besides, in the data set with Sprague Dawley rats [7] (rats, 3 g/kg/day dose), the “RBC compared to control” value was “significant increase”, the “RDW compared to control” value was “significant decrease” and the “RETIC compared to control” value is listed as “significant decrease”.
In the case of `CC/C=C\CC(O)/C=C/C=C\C/C=C\C/C=C\CCCC(=O)O` (stereo not shown) [15-HEPE, 15-hydroxy-eicosa-5Z,8Z,11Z,13E,17Z-pentaenoic acid], in [1], the “TGF-β induced EMT (pro-fibrotic) protein production” value is reported as “blocked”. On type II TGF-β receptor, the “degradation of type II TGF-β receptor” value is given as “induced degradation”. Moreover, the TβR-II degradation entry in data set [2] (Mv1Lu cells, 100 μM, 24 hours treatment) was “induce degradation”. Moreover, the TβR-II translocation result in data set [2] (Mv1Lu cells, 100 μM, from 1 to 4 hours) is listed as “induced TβR-II translocation”. Moreover, in data set [2], the “translocation and degradation of type II TGF-β receptors” value is “induced translocation and degradation”. The “TGF-β-stimulated intracellular signaling (SMAD2/3 phosphorylation)” value in data set [3] is listed as “inhibited”. Also, the “localization and abundance of EGFR” value in [8] is given as “did not change”. Besides, the “localization and abundance of caveolin-1” value in the data set on caveolin-1 is “did not change”. Also, in [9] (37° C., 0, 1, 4, 24 hours), the “abundance of TβR-I proteins” value is recorded as “did not affect”. Moreover, the “translocation of TβR-I to lipid-raft” value in data set [9] (24 hours treatment) is given as “induced translocation”. Moreover, the “localization and abundance of TβR-III” value in [10] is given as “did not change”.

These data come from patent US12076304B2, “Compositions comprising 15-HEPE and methods of treating or preventing hematologic disorders, and/or related diseases” (priority 2020, dated 2024).
